Results on 28 compounds are retold here after US20070054916A1, “Aryl nitrogen-containing bicyclic compounds and methods of use” (Amgen Inc., priority 2004, published 2007).

A word on the IC50: it is the midpoint of a concentration-inhibition curve.

A value given as a limit tells only on which side of the number the result lay.

The test system of this assay is production of TNF by monocytes activated with bacterial lipopolysaccharide (LPS). Description: Lipopolysaccharide-activated monocyte TNF production assay. Particulars: Homo sapiens, read-out: IC50 values in the monocyte assay (LPS induced TNF release). In kind it is cell-based. How it is done:
Lipopolysaccharide-Activated Monocyte TNF Production Assay
Test compounds were evaluated in vitro for the ability to inhibit the production of TNF by monocytes activated with bacterial lipopolysaccharide (LPS). Fresh residual source leukocytes (a byproduct of plateletpheresis) were obtained from a local blood bank, and peripheral blood mononuclear cells (PBMCs) were isolated by density gradient centrifugation on Ficol-Paque Plus (Pharmacia). PBMCs were suspended at 2×10^6/ml in DMEM supplemented to contain 2% FCS, 10 mM, 0.3 mg/ml […], 100 U/ml penicillin G and […] streptomycin sulfate (complete media). Cells were plated into Falcon flat bottom, 96 well culture plates (200 μl/well) and cultured overnight at 37° C. and 6% CO2. Non-adherent cells were removed by washing with 200 μl/well of fresh medium. Wells containing adherent cells (˜70% monocytes) were replenished with 100 μl of fresh medium.
Preparation of Test Compound Stock Solutions
Test compounds were dissolved in […]. Compound stock solutions were prepared to an initial concentration of […]. Stocks were diluted initially to 20-200 μM in complete media. Nine two-fold serial dilutions of each compound were then prepared in complete medium.
Treatment of Cells with Test Compounds and Activation of TNF Production with Lipopolysaccharide
One hundred microliters of each test compound dilution were added to microtiter wells containing adherent monocytes and 100 μl complete medium. Monocytes were cultured with test compounds for 60 min at which time 25 μl of complete medium containing 30 ng/ml lipopolysaccharide from E. coli K532 were added to each well. Cells were cultured an additional 4 hrs. Culture supernatants were then removed and TNF presence in the supernatants was quantified using an ELISA.
Flat bottom, 96 well Corning High Binding ELISA plates were coated overnight (4° C.) with 150 μL/well of 3 μg/ml murine anti-human TNF-α MAb (R&D Systems #MAB210). Wells were then blocked for 1 hr at room temperature with 200 μL/well of CaCl2-free ELISA buffer supplemented to contain 20 mg/ml BSA (standard ELISA buffer: […], 150 mM NaCl, 2 mM CaCl2, 0.15 mM thimerosal, pH 7.4). Plates were washed and replenished with 100 μl of test supernatants (diluted 1:3) or standards. Standards consisted of eleven 1.5-fold serial dilutions from a stock of 1 ng/ml recombinant human TNF (R&D Systems). Plates were incubated at room temperature for 1 hr on orbital shaker (300 rpm), washed and replenished with 100 μl/well of 0.5 ug/ml goat anti-human TNF-α (R&D systems #AB-210-NA) biotinylated at a 4:1 ratio. Plates were incubated for 40 min, washed and replenished with 100 μl/well of alkaline phosphatase-conjugated streptavidin (Jackson ImmunoResearch #016-050-084) at 0.02 ug/ml. Plates were incubated 30 min, washed and replenished with 200 μl/well of 1 mg/ml of p-nitrophenyl phosphate. After 30 min, plates were read at 405 nm on a Vmax plate reader.
Standard curve data were fit to a second order polynomial and unknown TNF-α concentrations determined from their OD by solving this equation for concentration. TNF concentrations were then plotted vs. test compound concentration using a second order polynomial. This equation was then used to calculate the concentration of test compounds causing a 50% reduction in TNF production.
With `CCN1CCC(CNc2ncc3cc(-c4cc(C(=O)Nc5cccc(C(F)(F)F)c5C)ccc4C)ccc3n2)CC1` [Example 35, 3-(2-(((1-ethyl-4-piperidinyl)methyl)amino)-6-quinazolinyl)-4-methyl-N-(2-methyl-3-(trifluoromethyl)phenyl)benzamide], the IC50 was no more than 25 µM.

For the compound `CCN(CC)CC(=O)Nc1cccc(NC(=O)c2ccc(C)c(-c3ccc4nc(N)ncc4c3)c2)c1C` [Example 63, 3-(2-amino-6-quinazolinyl)-N-(3-((N,N-diethylglycyl)amino)-2-methyiphenyl)-4-methylbenzamide], the IC50 is no more than 25 µM.

Regarding `CNc1ncc2cc(-c3cc(NC(=O)c4cccc5c4OC(F)(F)O5)ccc3C)cnc2n1` [Example 214, 2,2-difluoro-N-(4-methyl-3-(2-(methylamino)pyrido[2,3-d]pyrimidin-6-yl)phenyl)-1,3-benzodioxole-4-carboxamide], the concentration for half-maximal inhibition (IC50) was no more than 25 µM.

`Cc1ccc(C(=O)Nc2ccc(I)cn2)cc1-c1ccc2nc(N)ncc2c1` [Example 353, 3-(2-amino-6-quinazolinyl)-N-(5-iodo-2-pyridinyl)-4-methylbenzamide]: the IC50 was no more than 25 µM.

With `Cc1ccc(C(=O)Nc2ccc(C(F)(F)F)cc2)cc1-c1ccc2nc(N(C)C)ncc2c1` [Example 319, 3-(2-(dimethylamino)-6-quinazolinyl)-4-methyl-N-(4-(trifluoromethyl)phenyl)benzamide], the IC50 was no more than 25 µM.

With `CN1CC[C@@H](N(C)c2ccc(C(F)(F)F)cc2NC(=O)c2cc(-c3ccc4nc(N)ncc4c3)ccc2F)C1` [Example 419, 5-(2-amino-6-quinazolinyl)-2-fluoro-N-(2-(methyl((3R)-1-methyl-3-pyrrolidinyl)amino)-5-(trifluoromethyl)phenyl)benzamide], the IC50 was no more than 25 µM.

On to `Cc1ccc(C(=O)Nc2ccc(C(F)(F)F)cn2)cc1-c1ccc2nc(N)ncc2c1` [Example 360, 3-(2-amino-6-quinazolinyl)-4-methyl-N-(5-(trifluoromethyl)-2-pyridinyl)benzamide], for which the IC50 was no more than 25 µM.

For `Cc1ccc(C(=O)Nc2cccc(C(F)(F)F)c2)cc1-c1ccc2nc(NC3CC3)ncc2c1` [Example 29, 3-(2-(cyclopropylamino)-6-quinazolinyl)-4-methyl-N-(3-(trifluoromethyl)phenyl)benzamide], the 50% inhibitory concentration (IC50) is no more than 25 µM.

For `COc1ccc(Cl)cc1NC(=O)Nc1ccc(-c2ccc3nc(N)ncc3c2)c(C)c1` [Example 520, N-(4-(2-amino-6-quinazolinyl)-3-methylphenyl)-N′-(5-chloro-2-(methyloxy)phenyl)urea], the IC50 was no more than 25 µM.

As to `Cc1cc(NC(=O)c2ccc(C)c(-c3ccc4nc(N)ncc4c3)c2)c(N(C)CCCN(C)C)cc1C` [Example 116, 3-(2-amino-6-quinazolinyl)-N-(2-((3-(dimethylamino)propyl)(methyl)amino)-4,5-dimethylphenyl)-4-methylbenzamide], the IC50 was no more than 25 µM.

As for `Cc1ccc(C(=O)NCc2ccncc2)cc1-c1ccc2nc(N)ncc2c1` [Example 425, 3-(2-amino-6-quinazolinyl)-4-methyl-N-(4-pyridinylmethyl) benzamide], the IC50 was no more than 25 µM.

On to `COc1ccc(NC(=O)c2ccc(C)c(-c3ccc4nc(N)ncc4c3)c2)c(OC)c1` [Example 270, 3-(2-amino-6-quinazolinyl)-N-(2,4-bis(methyloxy)phenyl)-4-methylbenzamide], for which the IC50 is no more than 25 µM.

On to `COc1ccc(OC)c(NC(=O)c2ccc(C)c(-c3ccc4nc(N)ncc4c3)c2)c1` [Example 148, 3-(2-amino-6-quinazolinyl)-N-(2,5-bis(methyloxy)phenyl)-4-methylbenzamide], for which the IC50 is no more than 25 µM.

Take `Nc1ncc2cc(-c3cc(C(=O)Nc4cccc(C(F)(F)F)c4)ccc3F)ccc2n1` [Example 137, 3-(2-amino-6-quinazolinyl)-4-fluoro-N-(3 (trifluoromethyl)phenyl)benzamide]: the half-maximal inhibitory concentration (IC50) is no more than 25 µM.

As to `Cc1ccc(C(=O)Nc2cc(C(F)(F)F)ccn2)cc1-c1ccc2nc(N)ncc2c1` [Example 345, 3-(2-amino-6-quinazolinyl)-4-methyl-N-(4-(trifluoromethyl)-2-pyridinyl)benzamide], the IC50 was no more than 25 µM.

As to `CNc1ncc2cc(-c3cc(C(=O)Nc4cc(C(=O)NCCN5CCOCC5)cc(C(F)(F)F)c4)ccc3C)cnc2n1` [Example 189, 4-methyl-3-(2-(methylamino)pyrido [2,3-d]pyrimidin-6-yl)-N-(3-(((2-(4-morpholinyl)ethyl)amino)carbonyl)-5-(trifluoromethyl)phenyl)benzamide], the concentration for half-maximal inhibition (IC50) is no more than 25 µM.

For the compound `Cc1ccc(C(=O)Nc2ccc(C(C)(C)C)cc2)cc1-c1ccc2nc(N)ncc2c1` [Example 128, 3-(2-amino-6-quinazolinyl)-N-(4-(1,1-dimethylethyl)phenyl)-4-methylbenzamide], the half-inhibitory concentration (IC50) is no more than 25 µM.

`Cc1ccc(C(=O)Nc2cccc(C(F)(F)F)c2C)cc1-c1ccc2nc(NCCCN3CCCC3=O)ncc2c1` [Example 34, 4-methyl-N-(2-methyl-3-(trifluoromethyl)phenyl)-3-(2-((3-(2-oxo-1-pyrrolidinyl)propyl)amino)-6-quinazolinyl) benzamide]: the IC50 is no more than 25 µM.

For `CC(C)c1cccc(C(=O)Nc2cc(-c3ccc4nc(N)ncc4c3)ccc2F)c1` [Example 491, N-(5-(2-amino-6-quinazolinyl)-2-fluorophenyl)-3-(1-methylethyl)benzamide], the IC50 was no more than 25 µM.

Regarding `Cc1csc(NC(=O)c2ccc(C)c(-c3ccc4nc(N)ncc4c3)c2)n1` [Example 341, 3-(2-amino-6-quinazolinyl)-4-methyl-N-(4-thiazol-2-yl)benzamide], the IC50 is no more than 25 µM.

Take `Nc1ncc2cc(-c3cc(C(=O)Nc4cccc(OC(F)(F)F)c4)ccc3Cl)ccc2n1` [Example 142, 3-(2-amino-6-quinazolinyl)-4-chloro-N-(3-((trifluoromethyl)oxy)phenyl)benzamide]: the half-maximal inhibitory concentration (IC50) was no more than 25 µM.

For `COc1ccc(C(C)(C)C)cc1NC(=O)c1ccc(F)c(-c2ccc3nc(N)ncc3c2)c1` [Example 138, 3-(2-amino-6-quinazolinyl)-N-(5-(1,1-dimethylethyl)-2-(methyloxy)phenyl)-4-fluorobenzamide], the IC50 is no more than 25 µM.

`CNc1ncc2cc(-c3cc(NC(=O)c4cccc(C(F)(F)F)c4)ccc3C)cnc2n1` [Example 199, N-(4-methyl-3-(2-(methylamino)pyrido[2,3-d]pyrimidin-6-yl)phenyl)-3-(trifluoromethyl) benzamide]: the IC50 was no more than 25 µM.

On to `COc1ccc(C(C)(C)C)cc1NC(=O)c1ccc(Cl)c(-c2ccc3nc(N)ncc3c2)c1` [Example 139, 3-(2-amino-6-quinazolinyl)-4-chloro-N-(5-(1,1-dimethylethyl)-2-(methyloxy)phenyl)benzamide], for which the half-inhibitory concentration (IC50) is no more than 25 µM.

`Cc1ccc(C(=O)Nc2cc(C(F)(F)F)ccc2N2CCCCC2)cc1-c1ccc2nc(N)ncc2c1` [Example 76, 3-(2-amino-6-quinazolinyl)-4-methyl-N-(2-(1-piperidinyl)-5-(trifluoromethyl)phenyl)benzamide]: the IC50 is no more than 25 µM.

Turning to `CN(C)[C@@H]1CCN(c2ccc(C(F)(F)F)cc2NC(=O)c2cc(-c3ccc4nc(N)ncc4c3)ccc2F)C1` [Example 422, 5-(2-amino-6-quinazolinyl)-N-(2-((3R)-3-(dimethylamino)-1-pyrrolidinyl)-5-(trifluoromethyl)phenyl)-2-fluorobenzamide], the IC50 was no more than 25 µM.

With `Nc1ncc2cc(-c3ccc(F)c(NC(=O)c4cc(C(F)(F)F)ccc4F)c3)ccc2n1` [Example 433, N-(5-(2-aminoquinazolin-6-yl)-2-fluorophenyl)-2-fluoro-5-(trifluoromethyl)benzamide], the 50% inhibitory concentration (IC50) is no more than 25 µM.

Turning to `Cc1ccc(C(=O)Nc2cccc(C(F)(F)F)c2)cc1-c1ccc2nc(NCCN3CCOCC3)ncc2c1` [Example 20, 4-methyl-3-(2-((2-(4-morpholinyl)ethyl)amino)-6-quinazolinyl)-N-(3-(trifluoromethyl)phenyl)benzamide], the half-maximal inhibitory concentration (IC50) was no more than 25 µM.
